These results are taken from US20170037028A1 (BAYER PHARMA AKTIENGESELLSCHAFT, priority 2013, published 2017).

By IC50 is commonly meant the midpoint of a concentration-inhibition curve.

One experiment deals with T1, GLUT1 (Homo sapiens, UniProt P11166).
T1 sequence (P11166 1-492): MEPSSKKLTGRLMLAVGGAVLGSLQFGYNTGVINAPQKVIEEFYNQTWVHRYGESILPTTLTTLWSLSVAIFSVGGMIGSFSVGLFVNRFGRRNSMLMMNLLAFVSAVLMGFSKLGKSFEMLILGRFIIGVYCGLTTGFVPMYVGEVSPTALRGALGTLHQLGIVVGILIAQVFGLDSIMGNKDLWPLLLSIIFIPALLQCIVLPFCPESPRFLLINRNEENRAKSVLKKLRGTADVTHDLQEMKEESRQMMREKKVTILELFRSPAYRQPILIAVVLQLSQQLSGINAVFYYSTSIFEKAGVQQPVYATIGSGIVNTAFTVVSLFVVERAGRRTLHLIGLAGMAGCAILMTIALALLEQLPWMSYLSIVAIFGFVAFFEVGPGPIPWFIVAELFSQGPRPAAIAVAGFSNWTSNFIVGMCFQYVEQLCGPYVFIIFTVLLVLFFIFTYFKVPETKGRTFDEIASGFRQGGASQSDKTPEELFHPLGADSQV
As to the kind of experiment: Indirect measurement of GLUT1 activity by quantification of intracellular ATP levels (glucose induced ATP increase). In kind it is cell-based. Set-up: endogenous in cells; host or cells: DLD1 or CHO-K1. The note with it: DLD1 cells; 0.1 mM glucose, 1 μM Rotenone, 15 min; CellTiter-Glo ATP readout; IC50 values standardized to cytochalasin B IC50 values; read-out: IC50 regarding glucose induced ATP increase (GLUT1 inhibition). The essentials:
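DLD1 or CHO-K1 cells were starved overnight in glucose-free medium with 1% FCS, then combined with an oxidative phosphorylation inhibitor. GLUT1 activity was read as glucose-induced ATP increase, GLUT2 as fructose-induced. Intracellular ATP was quantified by CellTiter-Glo luminescence.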
(Cellular ATP, detected with luciferase, serves as a proxy for viable cell number.)
For the molecule `Cc1c(NC(=O)c2cc(C(N)=O)nc3cc(F)ccc23)c(C(F)(F)F)nn1Cc1ccccc1OC(F)(F)F` [Example 1703], the IC50 is 387 nM.

The same experiment, now with this note: read-out: IC50 regarding glucose induced ATP increase (GLUT1 inhibition).
Consider `Cc1nn(Cc2ccc(C(=O)N(C)C)cc2)c(C)c1NC(=O)c1cc(C(F)(F)F)nc2ccc(Br)cc12` [Example 143, 6-bromo-N-{1-[4-(dimethylcarbamoyl)benzyl]-3,5-dimethyl-1H-pyrazol-4-yl}-2-(trifluoromethyl)quinoline-4-carboxamide], for which the IC50 is 85.3 nM. The same measure, in the same setting: to `COc1ccc(Cn2nc(C)c(NC(=O)c3cc(C(F)(F)F)nc4ccc(Br)cc34)c2C)cc1` [Example 3, 6-bromo-N-[1-(4-methoxybenzyl)-3,5-dimethyl-1H-pyrazol-4-yl]-2-(trifluoromethyl)quinoline-4-carboxamide] belongs 3.1 nM; to `Cc1nn(Cc2ccc(F)cc2)c(C)c1NC(=O)c1cc(C(F)(F)F)nc2ccc(OC(F)(F)F)cc12` [Example 63, N-[1-(4-fluorobenzyl)-3,5-dimethyl-1H-pyrazol-4-yl]-6-(trifluoromethoxy)-2-(trifluoromethyl)quinoline-4-carboxamide], 129 nM; to `Cc1nn(Cc2ccc(F)cc2)c(C)c1NC(=O)c1cc(C(F)(F)F)nc2cc(F)c(F)cc12` [Example 39, 6,7-difluoro-N-[1-(4-fluorobenzyl)-3,5-dimethyl-1H-pyrazol-4-yl]-2-(trifluoromethyl)quinoline-4-carboxamide], 30 nM. The same measure, in the same setting: to `Cc1nn(Cc2ccc(C(=O)N[C@H]3CC[C@H](O)CC3)cc2)c(C)c1NC(=O)c1cc(C(F)(F)F)nc2ccc(Br)cc12` [Example 1053] belongs 13.7 nM; to `Cc1nn(Cc2ccccc2C#N)c(C)c1NC(=O)c1cc(C(N)=O)nc2c(F)cc(Cl)cc12` [Example 269, 6-chloro-N^4-[1-(2-cyanobenzyl)-3,5-dimethyl-1H-pyrazol-4-yl]-8-fluoroquinoline-2,4-dicarboxamide], 1.5 nM; to `CCc1nc(Cn2nc(C)c(NC(=O)c3cc(C(F)(F)F)nc4ccc(Br)cc34)c2C)no1` [Example 1499], 13.4 nM. The same measure, in the same setting: the value for `Cc1nn(Cc2ccncc2C#N)c(C)c1NC(=O)c1cc(C(N)=O)nc2ccccc12` [Example 286, N^4-{1-[(3-cyanopyridin-4-yl)methyl]-3,5-dimethyl-1H-pyrazol-4-yl}quinoline-2,4-dicarboxamide] was 35.6 nM. `COc1cc(C(=O)Nc2c(C)nn(Cc3cccnc3C#N)c2C)c2ccccc2n1` [Example 1153]: the IC50 worked out at 136 nM. On the same count and under the same terms, the value for `COc1ccc(Cn2nc(C)c(NC(=O)c3cc(C(N)=O)nc4cc(F)c(F)cc34)c2C)cc1F` [Example 236, 6,7-difluoro-N^4-[1-(3-fluoro-4-methoxybenzyl)-3,5-dimethyl-1H-pyrazol-4-yl]quinoline-2,4-dicarboxamide] was 0.4 nM. The same measure, in the same setting: the value for `COc1ccc(CCn2nc(C)c(NC(=O)c3cc(C(F)(F)F)nc4ccc(Br)cc34)c2C)cc1` [Example 1350] was 41.6 nM; that for `COc1ccc2nc(O)cc(C(=O)Nc3c(C)nn(Cc4ccc(F)cc4)c3C)c2c1` [Example 75, N-[1-(4-fluorobenzyl)-3,5-dimethyl-1H-pyrazol-4-yl]-2-hydroxy-6-methoxyquinoline-4-carboxamide] was 182 nM.

As to `Cc1cccc(Cn2nc(C)c(NC(=O)c3cc(C(N)=O)nc4cc(F)c(Cl)cc34)c2C)c1` [Example 1473], the IC50 worked out at 5.2 nM. Consider `Cc1nn(Cc2ccc(C(=O)Nc3ccncn3)cc2)c(C)c1NC(=O)c1cc(C(F)(F)F)nc2ccc(Br)cc12` [Example 1158], for which the IC50 turned out to be 155 nM.

Consider `COc1ccccc1Cn1nc(C(F)(F)F)c(NC(=O)c2cc(C(N)=O)nc3cc(F)c(Cl)cc23)c1C` [Example 1491], for which the IC50 was found to be 41.5 nM. On to `Cc1nn(Cc2cnn(C)c2C)c(C)c1NC(=O)c1cc(C(F)(F)F)nc2ccc(Br)cc12` [Example 1342], for which the IC50 came to 26.5 nM. `CNC(=O)c1ccc(Cn2nc(C(F)(F)F)c(NC(=O)c3cc(C(F)(F)F)nc4ccc(Br)cc34)c2C)nc1` [Example 1078]: the IC50 turned out to be 23.9 nM. On the same count and under the same terms, the value for `Cc1nn(Cc2ccc(C(=O)N(C)CCC3(O)CCCC3)cc2)c(C)c1NC(=O)c1cc(C(F)(F)F)nc2ccc(Br)cc12` [Example 1146] was 117 nM; that for `Cc1c(NC(=O)c2cc(C(N)=O)nc3ccccc23)c(C(F)(F)F)nn1CC(=O)Nc1ccccc1O` [Example 1671] was 149 nM. As for `Cc1nn(Cc2cccc(C#N)c2)c(C)c1NC(=O)c1cc(C(N)=O)nc2cccc(F)c12` [Example 1457], the IC50 was 15.2 nM.

`Cc1nn(Cc2ccc(C(=O)Nc3cccc(Cl)c3)cc2)c(C)c1NC(=O)c1cc(C(F)(F)F)nc2ccc(Br)cc12` [Example 1066]: the IC50 is 19.1 nM. On the same count and under the same terms, the value for `Cc1nn(Cc2ccc(C(=O)N3CCOCC3)cc2)c(C)c1NC(=O)c1cc(C(F)(F)F)nc2ccc(Br)cc12` [Example 141, 6-bromo-N-{3,5-dimethyl-1-[4-(morpholin-4-ylcarbonyl)benzyl]-1H-pyrazol-4-yl}-2-(trifluoromethyl)quinoline-4-carboxamide] was 69.4 nM. Same read-out and setting: to `Cc1cc(Cn2nc(C(F)(F)F)c(NC(=O)c3cc(C(N)=O)nc4cc(F)ccc34)c2C)on1` [Example 1542] belongs 84.9 nM. On the same count and under the same terms, the value for `Cc1nn(Cc2ccc(C(=O)Nc3cccc(C(N)=O)c3)cc2)c(C)c1NC(=O)c1cc(C(F)(F)F)nc2ccc(Br)cc12` [Example 1185] was 247 nM; that for `Cc1nn(CC2CCN(C(=O)OC(C)(C)C)CC2)c(C)c1NC(=O)c1cc(C(N)=O)nc2ccccc12` [Example 405, tert-butyl 4-[(4-{[(2-carbamoylquinolin-4-yl)carbonyl]amino}-3,5-dimethyl-1H-pyrazol-1-yl)methyl]piperidine-1-carboxylate] was 242 nM. For `Cc1cc(C(=O)Nc2c(C)nn(Cc3ccc(F)cc3)c2C)c2cc(Br)ccc2n1` [Example 43, 6-bromo-N-[1-(4-fluorobenzyl)-3,5-dimethyl-1H-pyrazol-4-yl]-2-methylquinoline-4-carboxamide], the concentration for half-maximal inhibition (IC50) was 31.7 nM. Still for that read-out and setting: the value for `COc1ccccc1Cn1nc(C(F)(F)F)c(NC(=O)c2cc(C(N)=O)nc3cc(F)ccc23)c1C` [Example 1588] was 175 nM; that for `Cc1nn(Cc2ccc(F)cc2)c(C)c1NC(=O)c1cc(C(N)=O)nc2ccccc12` [Example 122, N^4-[1-(4-fluorobenzyl)-3,5-dimethyl-1H-pyrazol-4-yl]quinoline-2,4-dicarboxamide] was 1.9 nM; that for `CCc1noc(Cn2nc(C)c(NC(=O)c3cc(C(F)(F)F)nc4ccc(Br)cc34)c2C)n1` [Example 1570] was 48.2 nM. On the same count and under the same terms, to `Cc1c(NC(=O)c2cc([S+](C)[O-])nc3ccccc23)c(C(F)(F)F)nn1Cc1ccc(C#N)cc1` (racemic) [Example 383, (±)-N-[1-(4-cyanobenzyl)-5-methyl-3-(trifluoromethyl)-1H-pyrazol-4-yl]-2-(methylsulfinyl)quinoline-4-carboxamide] belongs 8.3 nM.

Consider `COc1cc(C(=O)Nc2c(C)nn(Cc3csc(N4CCOCC4)n3)c2C)c2ccccc2n1` [Example 1530], for which the IC50 stood at 893 nM. For `Cc1nn(Cc2ccc(C(=O)NC(CO)CO)cc2)c(C)c1NC(=O)c1cc(C(F)(F)F)nc2ccc(Br)cc12` [Example 1122], the IC50 amounted to 67.3 nM. On to `COc1cc(C(=O)Nc2c(C)nn(Cc3ncccc3C#N)c2C)c2ccccc2n1` [Example 1102], for which the IC50 came to 43.5 nM. The same measure, in the same setting: to `Cc1nn(Cc2ccc(OC(F)(F)F)cc2)c(C)c1NC(=O)c1cc(C(N)=O)nc2ccc(Br)cc12` [Example 1464] belongs 5.5 nM; to `Cc1nn(Cc2ccc(C#N)cc2)c(C)c1NC(=O)c1cc(C(N)=O)nc2cc(Cl)ccc12` [Example 260, 7-chloro-N^4-[1-(4-cyanobenzyl)-3,5-dimethyl-1H-pyrazol-4-yl]quinoline-2,4-dicarboxamide], 4.7 nM; to `COc1cc(C(=O)Nc2c(C)nn(Cc3ccncc3C#N)c2C)c2ccccc2n1` [Example 1189], 310 nM. The same measure, in the same setting: to `CNC(=O)c1c(NC(=O)c2cc(C(F)(F)F)nc3ccc(Br)cc23)c(C)nn1Cc1ccc(F)cc1` [Example 1036] belongs 5.1 nM; to `Cc1nn(Cc2ccc(C(=O)NCc3cccnc3)cc2)c(C)c1NC(=O)c1cc(C(F)(F)F)nc2ccc(Br)cc12` [Example 138, 6-bromo-N-(3,5-dimethyl-1-{4-[(pyridin-3-ylmethyl)carbamoyl]benzyl}-1H-pyrazol-4-yl)-2-(trifluoromethyl)quinoline-4-carboxamide], 18.1 nM.

On to `CCc1cc(Cn2nc(C(F)(F)F)c(NC(=O)c3cc(C(N)=O)nc4ccccc34)c2C)on1` [Example 1555], for which the IC50 was found to be 18.4 nM.

With `CCc1nn(Cc2ccc(C#N)cc2)c(CC)c1NC(=O)c1cc(C(F)(F)F)nc2ccc(Br)cc12` [Example 309, 6-bromo-N-[1-(4-cyanobenzyl)-3,5-diethyl-1H-pyrazol-4-yl]-2-(trifluoromethyl)quinoline-4-carboxamide], the IC50 turned out to be 363 nM. Same read-out and setting: the value for `Cc1c(NC(=O)c2cc(C(N)=O)nc3cc(F)ccc23)c(C(F)(F)F)nn1Cc1ncccc1C#N` [Example 1392] was 15.5 nM.
